Read-outs that look alike come from different tables or passages of the source.
Columns and labels:
Assay type in all cases: cell-based
[1] = system: A549 cells; assay: A549 Cytotoxicity Assay (Cell Titer Glo viability)
Description: A549 Cytotoxicity Assay Protocol. Day 0: A549 cells (ATCC, A549 CCL-185) are grown to 95% confluence in RPMI, 10% FBS/Pen/Strep/L-Glutamine. Day 1: Plate cells (1000 per well) in 40 μl culturing media using Corning 384-well plates (3570), incubate in standard TC conditions (5% CO2, 95% humidity, 37° C.) for 24 h. Day 2: Dilute each concentration of a half-log serial dilution of compound (1 mM-100 nM) 1:200 in culturing media and add […] (50 μl total volume) of that dilution to designated wells (8 replicates per concentration). The final dilution will be 1000×([…]). Day 4: Remove plate from incubator to cool for 20 minutes to room temperature. Add 40 μl of a 25% Promega Cell Titer Glo solution (diluted 1:3 with room temperature PBS) with Thermo combi or multichannel and incubate for 10 min. Read on Perkin-Elmer EnVision with US LUM settings for 0.1 second per well.
A549 Assay Protocol. Day 0: A549 cells (ATCC) are grown in a Triple flask (NUNC) to ˜95% confluence (TrypLE Phenol Red free) and resuspended for dispensing at 25,000 cells/mL of DMEM, 10% FBS/Pen/Strep/L-Glutamine (using the TAP Compact SelecT automated cell culture system). Day 1: Plate cells at 1000 per well in 40 uL media (DMEM/10% FBS/Pen/Strep/L-Glutamine) using Corning 8867BC 384 well plates; incubate in standard TC conditions (5% CO2; 95% humidity, 37° C.) for 24 hours (Compact SelecT). Day 2: Add 100 nL compound per well at dose into 40 uL assay volume using a pin tool (CyBi Well). Pin 100 nL cytotoxic compounds, mitoxantrone (CID 4212) to positive control wells to a final concentration of 10 μM (100 nL 4 mM DMSO stock). Incubate for […] at 37° C. in Liconic incubator, 95% humidity 5% CO2. Day 4: Remove plate from incubator, cool for 15 minutes to room temperature; add 20 μL 50% Promega CellTiterGlo (diluted 1:1 with PBS, pH 7.4) with Thermo Combi. Incubate at room temperature for 5 minutes. Read plates on Perkin-Elmer EnVision with standard luminescence settings for 0.1 sec per well.
(§1) Compounds as shown were tested against various cells lines in vitro according to the methods described herein. Cells are plated in 384-well format in a total volume of 40 μl. Indicated compound concentrations were added 24 hrs after plating the cells. After 48 hrs cell viability was determined using Cell Titer Glo® Luminescent Cell Viability Assay.
as §1, with “Known PDE3 inhibitors” for “Compounds”, “shown below” for “shown”

[2] = system: H1563; assay: H1563 cell line viability (Cell Titer Glo); details: Homo sapiens, NCI-H1563; n = 2; read-out: Potency (EC50) H1563
Description: as §1

[3] = system: H2122 cells; assay: H2122 Assay (Cell Titer Glo viability); details: Homo sapiens
Description: Selective toxicity in cell line panel. H2122 Assay Protocol Day 0: H2122 cells (ATCC, H2122 CCL-5985) are grown to 95% confluence in RPMI, 10% FBS/Pen/Strep/L-Glutamine. Day 1: Plate cells (750 per well) in 40 μl culturing media using Corning 384-well plates (3570), incubate in standard TC conditions (5% CO2, 95% humidity, 37 degrees C.) for 24 h. Day 2: Dilute each concentration of a half-log serial dilution of compound (1 mM-100 nM) 1:200 in culturing media and add 10 μl (50 μl total volume) of that dilution to designated wells (8 replicates per concentration). The final dilution will be 1000×([…]). Day 4: Remove plate from incubator to cool for 20 minutes to room temperature. Add 40 μl of a 25% Promega Cell Titer Glo solution (diluted 1:3 with room temperature PBS) with Thermo combi or multichannel and incubate for 10 minutes. Read on Perkin-Elmer EnVision with US LUM settings for 0.1 second per well.
as §1

[4] = system: HeLa cells; assay: HeLa Cytotoxicity Assay (Cell Titer Glo viability)
Description: HeLa Cytotoxicity Assay Protocol: Day 0: HeLa cells (ATCC, HeLa CCL-2) are grown to 95% confluence in DMEM, 10% FBS/Pen/Strep/L-Glutamine. Day 1: Plate cells (1000 per well) in 40 μl culturing media using Corning 384-well plates (3570), incubate in standard TC conditions (5% CO2, 95% humidity, 37 degrees C.) for 24 hours. Day 2: Dilute each concentration of a half-log serial dilution of compound (1 mM-100 nM) 1:200 in culturing media and add 10 μl (50 μl total volume) of that dilution to designated wells (8 replicates per concentration). The final dilution will be 1000×(1 μM-100 pM). Day 4: Remove plate from incubator to cool for 20 minutes to room temperature. Add 40 μl of a 25% Promega Cell Titer Glo solution (diluted 1:3 with room temperature PBS) with Thermo combi or multichannel and incubate for 10 minutes. Read on Perkin-Elmer EnVision with US LUM settings for 0.1 second per well.
as §1
as §1, with “Known PDE3 inhibitors” for “Compounds”, “shown below” for “shown”

[5] = Homo sapiens, A549, n = 2, read-out: Potency (EC50) A549
[6] = NCI-H2122, n = 2, read-out: Potency (EC50) H2122
[7] = Homo sapiens, HeLa, n = 2, read-out: Potency (EC50) HeLa
[8] = Homo sapiens, A549, 48 hrs, Cell Titer Glo, read-out: EC50 A549
[9] = Homo sapiens, HeLa, 48 h, Cell Titer Glo, read-out: EC50 HeLa
[10] = 48 hrs, Cell Titer Glo, read-out: EC50 HeLa
[11] = Homo sapiens, A549, Mean ± SD (n = 3), read-out: Potency (EC50 nM) A549
[12] = Homo sapiens, HeLa, Mean ± SD (n = 3), read-out: Potency (EC50 nM) HeLa
[13] = Mean ± SD (n = 3), read-out: Potency (EC50 nM) HeLa

Structure (SMILES) | EC50 [1, 5] | EC50 [2] | EC50 [1, 11] | EC50 [4, 12] | other results
O=C1CCC(c2ccccc2)=NN1 | > 10000 nM | > 10 µM | – | – | –
CC1CC(=O)NN=C1c1ccc(N)cc1 (centres unmarked) | > 10000 nM | > 10 µM | – | – | –
C[C@@H]1CC(=O)NN=C1c1ccc(N)cc1 | > 10000 nM | > 10 µM | – | – | –
CC1CC(=O)NN=C1c1ccc(N2CCCCC2)c([N+](=O)[O-])c1 (centres unmarked) | > 10000 nM | 0.003 µM | – | – | EC50 [3, 6]: 0.001 µM; EC50 [4, 7]: 1 nM
CC1CC(=O)NN=C1c1ccc(N2CCOCC2)c([N+](=O)[O-])c1 (centres unmarked) | > 10000 nM | 0.003 µM | – | – | –
COc1ccc(CC(=O)N2CCN(c3ccc(C4=NNC(=O)CC4C)cc3[N+](=O)[O-])CC2)cc1 (centres unmarked) | > 10000 nM | > 10 µM | – | – | –
CC1CC(=O)NN=C1c1ccc(N)c([N+](=O)[O-])c1 (centres unmarked) | > 10000 nM | > 10 µM | – | – | –
CC1CC(=O)NN=C1c1ccc(N(C)C)c([N+](=O)[O-])c1 (centres unmarked) | > 10000 nM | 0.04 µM | – | – | –
CC1CC(=O)NN=C1c1ccc(NCCO)c([N+](=O)[O-])c1 (centres unmarked) | > 10000 nM | 0.04 µM | – | – | EC50 [3, 6]: 0.011 µM; EC50 [4, 7]: 4 nM
CC1CC(=O)NN=C1c1ccc(N)c(N)c1 (centres unmarked) | > 10000 nM | > 10 µM | – | – | –
CC1CC(=O)NN=C1c1ccc(/N=C\c2ccccc2[N+](=O)[O-])cc1 (centres unmarked) | > 10000 nM | > 10 µM | – | – | –
O=C(O)Cc1n[nH]c(=O)c2ccccc12 | > 10000 nM | > 10 µM | – | – | –
CCN(CC)c1ccc(C(=O)Nc2cccc(OC)c2)cc1[N+](=O)[O-] | > 10000 nM | > 10 µM | – | – | –
CCN(CC)c1ccc(C#N)cc1[N+](=O)[O-] | > 10000 nM | > 10 µM | – | – | –
CCN(CC)c1ccc(C(=O)O)cc1[N+](=O)[O-] | > 10000 nM | > 10 µM | – | – | –
CCN(CC)c1ccc(C(=O)Nc2ccccc2)cc1[N+](=O)[O-] | > 10000 nM | – | – | – | EC50 [4, 7]: > 10000 nM
Cc1ccc(CCC(=O)N2CCN(c3ccc(C4=NNC(=O)CC4C)cc3)CC2)cc1 (centres unmarked) | > 10000 nM | – | – | – | EC50 [4, 7]: > 10000 nM
CC1CC(=O)NN=C1c1ccc(N2CCN(C(=O)Cc3ccc(Cl)cc3Cl)CC2)cc1 (centres unmarked) | > 10000 nM | – | – | – | EC50 [4, 7]: > 10000 nM
CCN(CC)c1ccc(C2=NNC(=O)CC2C)cc1[N+](=O)[O-] (centres unmarked) [drawing 137] | – | – | – | – | EC50 ([3]; NCI-H2122, 48 h, 48 hrs, Cell Titer Glo, read-out: EC50 H2122): 0.0103 to 0.0156 µM; EC50 [1, 8]: > 10000 nM; EC50 [4, 9]: 5.5 to 8.7 nM
CC(=O)Nc1ccc(C2=NNC(=O)CC2C)cc1 (centres unmarked) [drawing 139] | – | – | – | – | EC50 ([1]; 48 hrs, Cell Titer Glo, read-out: EC50 A549): > 10000 nM; EC50 [4, 10]: > 10000 nM
CC(=O)Nc1ccc(C2=NNC(=O)C[C@H]2C)cc1[N+](=O)[O-] [drawing 143] | – | – | – | – | EC50 [1, 8]: > 10000 nM; EC50 [4, 9]: 0.00608 nM
CC(=O)Nc1ccc(C2=NNC(=O)C[C@H]2C)cc1 [drawing 144] | – | – | – | – | EC50 [1, 8]: > 10000 nM; EC50 [4, 9]: > 10000 nM

Structure (SMILES) | EC50 [1, 5] | EC50 [2] | EC50 [1, 11] | EC50 [4, 12] | other results
CC(=O)Nc1ccc(C2=NNC(=O)C[C@H]2C)cc1Br [drawing 146] | – | – | – | – | EC50 [1, 8]: > 10000 nM; EC50 [4, 9]: 42.1 nM
CC(=O)Nc1ccc(C2=NNC(=O)CC2C)cc1 (centres unmarked) [drawing 148] | – | – | – | – | EC50 [1, 8]: > 10000 nM; EC50 [4, 10]: > 1000 nM
Cc1cc(=O)[nH]nc1-c1ccc(N)cc1 [drawing 149] | – | – | – | – | EC50 [1, 8]: > 10000 nM; EC50 [4, 9]: > 1000 nM
CCN(CC)c1ccc(-c2n[nH]c(=O)cc2C)cc1 [drawing 150] | – | – | – | – | EC50 [1, 8]: > 10000 nM; EC50 [4, 9]: > 1000 nM
CCN(CC)c1ccc(C2=NNC(=O)C[C@H]2C)cc1[N+](=O)[O-] [drawing 155] | – | – | > 10000 nM | 3.8 ± 1.1 nM | –
CCNc1ccc(C2=NNC(=O)C[C@H]2C)cc1[N+](=O)[O-] [drawing 156] | – | – | > 10000 nM | 1.1 ± 0.5 nM | –
CCN1N=C(c2ccc(N(CC)CC)cc2)[C@H](C)CC1=O [drawing 160] | – | – | > 10000 nM | > 1000 nM | –
C[C@@H]1CC(=O)NN=C1c1ccc(N2CCOCC2)cc1 [drawing 164] | – | – | > 10000 nM | 13 ± 2 nM | –
C[C@@H]1CC(=O)NN=C1c1ccc(N2CCOCC2)c(F)c1 [drawing 166] | – | – | > 10000 nM | 1.6 ± 0.2 nM | –
CC(=O)Nc1ccc(C2=NNC(=O)CC2C)cc1 (centres unmarked) [drawing 173] | – | – | > 10000 nM | > 1000 nM | –
CC(=O)Nc1ccc(C2=NNC(=O)C[C@H]2C)cc1 [drawing 174] | – | – | > 10000 nM | > 1000 nM | –
CC(=O)Nc1ccc(C2=NNC(=O)C[C@H]2C)cc1Br [drawing 175] | – | – | > 10000 nM | 21 ± 1 nM | –
CC(=O)Nc1ccc(C2=NNC(=O)C[C@H]2C)cc1[N+](=O)[O-] [drawing 176] | – | – | > 10000 nM | 4.9 ± 1.1 nM | –
C[C@@H]1CC(=O)NN=C1c1ccc(N2CCCC2=O)cc1 [drawing 182] | – | – | > 10000 nM | – | EC50 [4, 13]: 140 ± 50 nM
C[C@@H]1CC(=O)NN=C1c1ccc(N2CCCC2=O)cc1 [drawing 183] | – | – | – | – | EC50 ([1]; Mean ± SD (n = 3), read-out: Potency (EC50 nM) A549): > 10000 nM; EC50 [4, 13]: > 1000 nM
C[C@@H]1CC(=O)NN=C1c1ccc(F)c(F)c1 [drawing 190] | – | – | > 10000 nM | 22 ± 5 nM | –
C[C@@H]1CC(=O)NN=C1c1ccc(C2CCCCC2)cc1 [drawing 196] | – | – | > 10000 nM | 7.7 ± 1.3 nM | –
C[C@@H]1CC(=O)NN=C1c1ccc(-c2cncnc2)cc1 [drawing 197] | – | – | > 10000 nM | 13 ± 2 nM | –
Cc1cc(=O)[nH]nc1-c1ccc(N)cc1 [drawing 199] | – | – | > 10000 nM | > 1000 nM | –
CCN(CC)c1ccc(-c2n[nH]c(=O)cc2C)cc1 [drawing 200] | – | – | > 10000 nM | > 1000 nM | –
CCN(CC)c1ccc(C2=NNC(=O)CC2C)cc1[N+](=O)[O-] (centres unmarked) [drawing 226] | > 10000 nM | 0.012 µM | – | – | EC50 [3, 6]: 0.012 µM; EC50 [4, 7]: 4 nM
CN/C(=N\c1ccc(C2=NNC(=O)CC2C)cc1)NC#N (centres unmarked) [drawing 237] | > 10000 nM | > 10 µM | – | – | –

— patent US20180244629A1, “Compounds And Compositions For The Treatment Of Cancer” (The Broad Institute, Inc., priority 2013, published 2018)
